Literature values as cited in publication PMC7774954, “Interactomic affinity profiling by holdup assay: Acetylation and distal residues impact the PDZome-binding specificity of PTEN phosphatase” (PLoS ONE, 2020).
Where no end group is shown, it is not given here. The star is where a group is joined. Biotin = O=C1N[C@H]2[C@H](CS[C@H]2CCCCC(=O)*)N1; TTDS = NCCCOCCOCCOCCCNC(=O)CCC(=O)*

Key:
MAST2 PDZ 1 = conditions: ITC, read-out: KD (affinity provided in the literature); cited from earlier work
Description: (§1) Table 1 PDZ domains interactors for PTEN according to literature and the present study. | column: KD ^d

PARD3 PDZ 3 = conditions: FP, read-out: KD (affinity provided in the literature); cited from earlier work
Description: as §1

SNX27 PDZ 1 = conditions: ITC, read-out: KD (affinity provided in the literature); cited from earlier work
Description: as §1

PTPN13-4 domain = conditions: cited from earlier work
Description: It has been shown that the binding of the tumor suppressor PTEN, through its PBM, to PDZ dom ...

PTEN: PTEN constructs of published studies; phosphatase and tensin homolog deleted on chromosome 10 ({Biotin-TTDS}-DEDQHTQITKV)
Kd (MAST2 PDZ 1): 2 µM | Kd (PARD3 PDZ 3): 19 µM | Kd (SNX27 PDZ 1): 38 µM | interaction with PTPN13-4 (in words) (PTPN13-4 domain): absence of interaction
